Measured values as given in patent US20090162413A1 (priority 1998, published 2009).

Assay: Phase 1 multiple escalating intravenous dose safety and pharmacokinetics, QD for 14 days (Example 7)
Type: in vivo, human
Conditions: for median Cmax: predicted 14-day profile; for AUCτ/Dose / Cmax / Cmax/Dose: secondary predicted parameter; for Gamma: terminal elimination rate constant
Protocol: The present study was designed to evaluate the pharmacokinetics of zotarolimus following multiple dosing and to assess its safety while maximizing systemic exposure of healthy subjects. […] The study investigated pharmacokinetics and safety of zotarolimus in a Phase 1, multiple dose-escalation study following multiple intravenous infusions of 200, 400 and 800 μg doses, every day for fourteen consecutive days in healthy subjects.
Phase 1, multiple-escalating dose, double-blind, placebo-controlled, randomized study. Seventy-two subjects equally divided in 3 once-daily (QD) regimens (200, 400 or 800 μg QD with 16 active and 8 placebo per regimen) were administered a 60-minute QD IV infusion of zotarolimus for 14 consecutive days. Blood samples were collected over 24 hours following the first dose, before dosing on days 10, 11, 12, 13, and for 168 hours following Day 14 dose. Urine samples were collected over 24 hours on days 1, 14, 16, 18 and 20. Blood and urine zotarolimus concentrations were determined using a validated LC/MS/MS method. Pharmacokinetic parameters were determined by compartmental analysis. All Day-AUC0-∞ (area under blood concentration-time curve from time 0 to infinity including all 14 doses) was calculated. Dose and time-linearity and achievement of steady-state were evaluated. Fraction of drug eliminated in urine was determined.
Within each group, subjects were equally divided at the two study sites with each site enrolling 12 subjects (zotarolimus, eight subjects; placebo four subjects). The dosing scheme within each dose group is presented below:
Subjects received, under fasting conditions, a single 60-minute daily (QD) intravenous infusion of 200, 400, or 800 μg of zotarolimus or a matching intravenous infusion of placebo for Groups I, II and III, respectively on Study Days 1 through 14. The drug was administered via a syringe pump connected to a y-site device, which also infused 125-150 mL of 5% aqueous dextrose solution (D5W) over 60 minutes. The groups were dosed sequentially with at least 7 days separating the last dose of the previous group and the first dose of the next group during which time safety data from the previous group was analyzed. Dose escalation was dependent on the safety analysis of the lower dose group.
Five (5)-mL blood samples were collected in potassium EDTA containing tubes to evaluate zotarolimus concentrations prior to dosing (0 hour), and at 0.25, 0.5, 1.0, 1 hour 5 min, 1.25, 1.5, 2, 3, 4, 8, 12, 18 and 24 hours after starting infusion on Study Days 1 and 14. Additional samples were collected at 36, 48, 72, 96, 120, 144 and 168 hours after starting infusion on Study Day 14 and before dosing on Days 10, 11, 12 and 13. Urine was collected in containers without preservatives over the following intervals: 0 to 6, 6 to 12, 12 to 18 and 18 to 24 hours after starting the infusion on Study Days 1, 14, 16, 18 and 20.
Blood and urine concentrations of zotarolimus were determined using a validated liquid/liquid extraction HPLC tandem mass spectrometric method (LC-MS/MS). The lower limit of quantification of zotarolimus was 0.20 ng/mL using 0.3 mL blood sample and 0.50 ng/mL using 0.3 mL urine sample.
Safety was evaluated based on adverse event, physical examination, vital signs, ECG, injection site and laboratory tests assessments
The pharmacokinetic parameter values of zotarolimus were estimated for individual subjects using compartmental analysis. Data from the first dose on Study Day 1, the last dose on Study Day 14 and the trough concentrations on Study Days 10, 11, 12 and 13 were simultaneously modeled for each individual subject. […]

Compound: CO[C@H]1C[C@@H]2CC[C@@H](C)[C@@](O)(O2)C(=O)C(=O)N2CCCC[C@H]2C(=O)O[C@H]([C@H](C)C[C@@H]2CC[C@H](n3cnnn3)[C@H](OC)C2)CC(=O)[C@H](C)/C=C(\C)[C@@H](O)[C@@H](OC)C(=O)[C@H](C)C[C@H](C)/C=C/C=C/C=C/1C [zotarolimus]
- V1 (200 μg QD IV infusion 14 days, compartmental, mean ± SD): 11.4 ± 1.7 L
- median Cmax (200 μg QD): 11.4 ng/mL
- AUCτ/Dose (200 μg QD, mean ± SD): 0.245 ± 0.031 ng·h/mL/µg
- Cmax (200 μg QD, mean ± SD): 11.2 ± 1.1 ng/mL
- Cmax/Dose (200 μg QD, mean ± SD): 0.056 ± 0.006 ng/mL/µg
- Gamma (200 μg QD, mean ± SD): 0.028 ± 0.005 h − 1
- V1 (400 μg QD IV infusion 14 days, compartmental, mean ± SD): 11.3 ± 1.0 L
- median Cmax (400 μg QD): 22.1 ng/mL
- AUCτ/Dose (400 μg QD, mean ± SD): 0.260 ± 0.047 ng·h/mL/µg
- Cmax (400 μg QD, mean ± SD): 21.4 ± 2.4 ng/mL
- Cmax/Dose (400 μg QD, mean ± SD): 0.053 ± 0.006 ng/mL/µg
- Gamma (400 μg QD, mean ± SD): 0.022 ± 0.003 h − 1
- V1 (800 μg QD IV infusion 14 days, compartmental, mean ± SD): 13.1 ± 3.2 L
- fraction of the dose recovered in the urine as unchanged drug (800 μg QD dose group, 24-hour period on Day 1 and Day 14): approximately 0.1%
- median Cmax (800 μg QD): 38.9 ng/mL
- AUCτ/Dose (800 μg QD, mean ± SD): 0.224 ± 0.022 ng·h/mL/µg
- Cmax (800 μg QD, mean ± SD): 38.7 ± 6.3 ng/mL
- Cmax/Dose (800 μg QD, mean ± SD): 0.048 ± 0.008 ng/mL/µg
- Gamma (800 μg QD, mean ± SD): 0.023 ± 0.003 h − 1
- evidence of immunosuppression, QTc prolongation or clinically significant adverse events (200-800 μg QD for 14 days): no subject displayed any clinical or biochemical evidence of immunosuppression, QTc prolongation or clinically significant adverse events
- most common treatment-emergent adverse events (200-800 μg QD for 14 days): pain, headache, injection site reaction, dry skin, abdominal pain, diarrhea and rash
- serious adverse events (200-800 μg QD for 14 days): no serious adverse events
- dose proportionality and time dependence of pharmacokinetics (IV for 14 consecutive days, 200-800 μg QD): dose proportional and time invariant
- Steady state for QD dosing reached (QD IV dosing, first trough samples on Day 10): ≤ 10 days
- tolerability (multiple doses of 200, 400, and 800 μg for 14 consecutive days): generally well tolerated
- V1 (range of means over the studied regimens 200-800 μg QD): 11.3 to 13.1 L
- zotarolimus dose recovered in the urine (within a 24-hour period post-dose, on average): 0.1%
